As a reminder, the Kd is the constant that tells how readily two partners part at equilibrium. One may read the Km as the substrate concentration at which the rate is half of its maximum. Usually kcat stands for the number of substrate molecules converted per active site and unit of time at saturation.

From publication PMC8418346, “Aromatic L-amino acid decarboxylase deficiency: a patient-derived neuronal model for precision therapies” (Brain, 2021) come the findings set out here.

The target of data set [1] is T1, AADC (aromatic L-amino acid decarboxylase), recombinant (Homo sapiens, UniProt P20711).
T1 construct: gene DDC; recombinant AADC produced in vitro; native homodimer
T1 sequence (P20711 1-480): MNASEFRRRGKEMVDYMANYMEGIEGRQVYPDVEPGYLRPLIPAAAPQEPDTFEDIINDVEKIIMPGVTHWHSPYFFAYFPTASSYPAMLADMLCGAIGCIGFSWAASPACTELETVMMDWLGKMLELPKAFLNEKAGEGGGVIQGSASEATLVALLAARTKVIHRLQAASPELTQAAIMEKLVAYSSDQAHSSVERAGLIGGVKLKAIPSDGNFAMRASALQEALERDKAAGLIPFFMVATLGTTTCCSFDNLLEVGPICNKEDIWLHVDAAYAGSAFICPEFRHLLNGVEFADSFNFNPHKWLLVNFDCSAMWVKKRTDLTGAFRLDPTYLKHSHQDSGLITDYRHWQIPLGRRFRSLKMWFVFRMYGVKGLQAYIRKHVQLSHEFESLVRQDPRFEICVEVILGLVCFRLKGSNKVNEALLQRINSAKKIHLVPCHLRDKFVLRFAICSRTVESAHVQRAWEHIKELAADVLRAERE
Put plainly: kinetic parameters of recombinant AADC (method in supplement). In kind it is biochemical. The conditions noted are these: wild-type reference of the C100S comparison; main text does not state whether measured here or taken from earlier work.

For data set [2], the target named is T2, AADC (aromatic L-amino acid decarboxylase), recombinant (Homo sapiens, UniProt P20711, C100S).
T2 construct: gene DDC; recombinant AADC produced in vitro; native homodimer
T2 sequence (P20711 1-480 C100S): T1 sequence (P20711 1-480) with C100S
Put plainly: PLP binding affinity of recombinant AADC (method in supplement). The source says:
PLP binding affinity of recombinant AADC (method in supplement) on AADC (aromatic L-amino acid decarboxylase), recombinant | with a KD(PLP) consistently lower than previously reported values for AADC variants

Substrate in data set [3]: N[C@@H](Cc1ccc(O)c(O)c1)C(=O)O
The data set is described as follows: kinetic parameters of recombinant AADC (method in supplement). In kind it is biochemical, Homo sapiens. The text has this:
kinetic parameters of recombinant AADC (method in supplement) on AADC (aromatic L-amino acid decarboxylase), recombinant | attributed to a slight decrease in L-DOPA affinity (KM)

Numbering of substitutions follows the chain as printed. Names may count otherwise.

As for `N[C@@H](Cc1ccc(O)c(O)c1)C(=O)O` [L-DOPA], the KM result in data set [1] is “catalytic activity (kcat) of AADCC100S was indeed similar to that observed for wild-type”. `Cc1ncc(COP(=O)(O)O)c(C=O)c1O` [PLP]: in data set [2], the Kd was 112 ± 14 nM.

B1: AADC (aromatic L-amino acid decarboxylase), recombinant (Homo sapiens; C100S) (protein)
chain: T1 sequence (P20711 1-480) with C100S
notes: recombinant AADC produced in vitro; native homodimer
As to B1, in data set [3], the Km is 420 ± 100 µM and the kcat was 6.9 ± 0.6 s⁻¹.
